Legend:
[1] = biological target: T1, KRAS G12D 1-169 (His-tagged, GDP-loaded) (Homo sapiens, UniProt P01116, G12D); experiment: Covalent modification of KRAS protein by intact-protein LC-MS; format: binding; settings: comparable or same conditions as K-Ras G12S
T1 construct: His -tagged GDP-loaded G12D 1-169; made in house; host or cells: E. coli, e.g. BL21 (DE3)
In short: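 Percent modification is derived from deconvoluted intact-protein LC-ESI-MS peak intensities of adducted versus unmodified KRAS. GDP-loaded His-tagged KRAS 1-169 (~2 μM, HEPES buffer at physiological conditions) was exposed to compound for 24 hrs at room temperature, then quenched with formic acid before C4 reversed-phase separation.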

[2] = Metabolic (microsomal) stability assay; settings: pooled liver microsomes, pH 7.4
Description: The metabolic stability of a test compound is assayed at 37° C. using pooled liver microsomes (mouse or human liver microsomes). An aliquot of 10 μL of 50 μM test compound is mixed with 490 μL of 0.611 mg/mL liver microsomes, then 50 μL of the mixtures are dispensed to the 96 well tubes and warmed at 37° C. for 10 minutes. The reactions are initiated by adding 50 μL of the pre-warmed NADPH regeneration system solution (add 1.2 μL solution, 240 μl solution B, mix with 10.56 ml KPBS) and then incubated at 37° C. The final incubation solution contains 100 mM potassium phosphate (pH 7.4), 1.3 mM NADP+, 3.3 mM glucose 6-phosphate, 0.4 Unit/mL of glucose 6-phosphate dehydrogenase, 3.3 mM magnesium chloride, 0.3 mg/mL liver microsomes and 0.5 μM test article. After 0, 15, 30 and 60 minutes in a shaking incubator, the reactions are terminated by adding 100 μL of acetonitrile containing 200 nM buspirone as an internal standard. All incubations are conducted in duplicate. […] Samples are then centrifuged at 3500 rpm for 10 minutes (4° C.) using Sorvall Legend XRT Centrifuge (Thermo Scientific, GE). Supernatants (40 μL) are transferred into clean 96-deep well plates. Each well is added with 160 μL of ultrapure water (Milli-Q, Millipore Corporation) with 0.1% (v/v) formic acid (Fisher Chemical), mixed thoroughly and subjected to LC/MS/MS analysis in MRM positive ionization mode.
All the samples are measured using a mass spectrometer (QTrap 5500 quadrupole/ion trap) coupled with a Shimadzu HPLC system. The HPLC system consisted of a Shimadzu series degasser, binary quaternary gradient pumps, column heater coupled to an autosampler, and a Phenomenex Gemini-NX, C18, 3.0 μm or Phenomenex Lunar, C8, 5.0 μM HPLC column (Phenomenex, Torrance, CA), and eluted with a mobile phase gradient consisting of Solution A (0.1% formic acid water) and Solution B (0.1% formic acid acetonitrile). The column temperature is maintained at 40° C. All the analytes are detected with positive-mode electrospray ionization (ES+).
The half-life for the metabolic degradation of the test compound is calculated by plotting the time-course disappearance of the test compound during the incubation with liver microsomes. Each plot is fitted to a first-order equation for the elimination of the test compound (% remaining compound) versus time using non-linear regression (Equation 1).
where Ct is the mean relative substrate concentration at time t and C0 is the initial concentration (0.5 μM) at time 0. Note that the area ratio of the substrate peak to an internal standard peak is proportional to the analyte concentration and is used for regression analysis to derive a value of k.

T1 sequence (P01116 1-169 isoform P01116-2 G12D): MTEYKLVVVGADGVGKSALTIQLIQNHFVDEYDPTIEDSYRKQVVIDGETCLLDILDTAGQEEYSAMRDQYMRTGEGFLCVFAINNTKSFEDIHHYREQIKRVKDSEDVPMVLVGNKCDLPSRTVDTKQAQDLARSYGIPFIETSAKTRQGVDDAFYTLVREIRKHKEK

Compound	covalent labeling of K-Ras G12D [1]	half-life at 0.5 μM [2] [min]
Cc1ncn(C(=O)N2CC3(CCCN(c4nc(OC[C@@]56CCCN5C[C@H](F)C6)nc5c(F)c(-c6ccc(F)c7sc(N)c(C#N)c67)c(Cl)cc45)C3)C2)n1 [Compound A102, 2-amino-4-(6-chloro-8-fluoro-2-(((2R,7aS)-2-fluorotetrahydro-1H-pyrrolizin-7a(5H)-yl)meth-oxy)-4-(2-(3-methyl-1H-1,2,4-triazole-1-carbonyl)-2,6-diaza-spiro[3.5]nonan-6-yl)quinazo-lin-7-yl)-7-fluorobenzo[b]-thiophene-3-carbonitrile]	essentially no detectable labeling	> 10
N#Cc1c(N)sc2c(F)ccc(-c3c(Cl)cc4c(N5CC6(CN(C(=O)n7cncn7)CCO6)C5)nc(OC[C@@]56CCCN5C[C@H](F)C6)nc4c3F)c12 [Compound A140, 4-(4-(8-(1H-1,2,4-triazole-1-carbonyl)-5-oxa-2,8-diaza-spiro[3.5]nonan-2-yl)-6-chloro-8-fluoro-2-(((2R,7aS)-2-fluoro-tetrahydro-1H-pyrrolizin-7a(5H)-yl)methoxy)quinazolin-7-yl)-2-amino-7-fluorobenzo-[b]thiophene-3-carbonitrile]		> 10
N#CC[C@H]1CN(c2nc(OC[C@@]34CCCN3C[C@H](F)C4)nc3c(F)c(-c4ccc(F)c5sc(N)nc45)c(Cl)cc23)CCN1C(=O)n1cncn1 [Compound A145, 2-((2S)-4-(7-(2-amino-7-fluorobenzo[d]thiazol-4-yl)-6-chloro-8-fluoro-2-(((2R,7aS)-2-fluorotetrahydro-1H-pyrrolizin-7a(5H)-yl)methoxy)quinazolin-4-yl)-1-(1H-1,2,4-triazole-1-carbonyl)piperazin-2-yl)aceto-nitrile]		> 10
Nc1nc2c(-c3c(Cl)cc4c(N5CCN(C(=O)n6cncn6)CC5)nc(OC[C@@]56CCCN5C[C@H](F)C6)nc4c3F)ccc(F)c2s1 [Compound A146, (4-(7-(2-amino-7-fluorobenzo-[d]thiazol-4-yl)-6-chloro-8-fluoro-2-(((2R,7aS)-2-fluoro-tetrahydro-1H-pyrrolizin-7a(5H)-yl)methoxy)quinazolin-4-yl)piperazin-1-yl)(1H-1,2,4-triazol-1-yl)methanone]		> 10
Cc1ncn(C(=O)N2CC3(C2)CN(c2nc(OC[C@@]45CCCN4C[C@H](F)C5)nc4c(F)c(-c5ccc(F)c6sc(N)c(C#N)c56)c(Cl)cc24)CCO3)n1 [Compound A148, 2-amino-4-(6-chloro-8-fluoro-2-(((2R,7aS)-2-fluorotetrahydro-1H-pyrrolizin-7a(5H)-yl)-methoxy)-4-(2-(3-methyl-1H-1,2,4-triazole-1-carbonyl)-5-oxa-2,8-diazaspiro[3.5]nonan-8-yl)quinazolin-7-yl)-7-fluoro-benzo[b]thiophene-3-carbonitrile]	essentially no detectable labeling	> 10
Cc1ncn(C(=O)N2CCCC(Oc3nc(OC[C@@]45CCCN4C[C@H](F)C5)nc4c(F)c(-c5ccc(F)c6sc(N)c(C#N)c56)c(Cl)cc34)CC2)n1 (stereo partly drawn) [Compound A174, 2-amino-4-(6-chloro-8-fluoro-2-(((2R,7aS)-2-fluorotetra-hydro-1H-pyrrolizin-7a(5H)-yl)methoxy)-4-((1-(3-methyl-1H-1,2,4-triazole-1-carbonyl)-azepan-4-yl)oxy)quinazolin-7-yl)-7-fluorobenzo[b]thiophene-3-carbonitrile]		> 10
N#Cc1c(N)sc2c(F)ccc(-c3c(Cl)cc4c(N5CCC6CN(C(=O)n7cncn7)CC65)nc(OC[C@@]56CCCN5C[C@H](F)C6)nc4c3F)c12 (stereo partly drawn) [Compound A178, 4-(4-(5-(1H-1,2,4-triazole-1-carbonyl)hexahydropyrrolo[3,4-b]pyrrol-1(2H)-yl)-6-chloro-8-fluoro-2-(((2R,7aS)-2-fluoro-tetrahydro-1H-pyrrolizin-7a(5H)-yl)methoxy)quinazolin-7-yl)-2-amino-7-fluorobenzo-[b]thiophene-3-carbonitrile]		> 10
N#Cc1c(N)sc2c(F)ccc(-c3c(Cl)cc4c(N5CCC6C5CCCN6C(=O)n5cncn5)nc(OC[C@@]56CCCN5C[C@H](F)C6)nc4c3F)c12 (stereo partly drawn) [Compound A181, 4-(4-(4-(1H-1,2,4-triazole-1-carbonyl)octahydro-1H-pyrrolo[3,2-b]pyridin-1-yl)-6-chloro-8-fluoro-2-(((2R,7aS)-2-fluorotetrahydro-1H-pyrrol-izin-7a(5H)-yl)methoxy)quin-azolin-7-yl)-2-amino-7-fluoro-benzo[b]thiophene-3-carbonitrile]		> 10
CN1CCC[C@H]1COc1nc(N2CCOC3(CN(C(=O)n4cncn4)C3)C2)c2cc(Cl)c(-c3ccc(F)c4sc(N)c(C#N)c34)c(F)c2n1 [Compound A182, 4-(4-(2-(1H-1,2,4-triazole-1-carbonyl)-5-oxa-2,8-diazaspiro-[3.5]nonan-8-yl)-6-chloro-8-fluoro-2-(((S)-1-methylpyrrol-idin-2-yl)methoxy)quinazolin-7-yl)-2-amino-7-fluorobenzo-[b]thiophene-3-carbonitrile]	essentially no detectable labeling	> 10
Nc1nc2c(-c3c(Cl)cc4c(N5CCC6(CN(C(=O)n7cncn7)C6)C5)nc(OC[C@@]56CCCN5C[C@H](F)C6)nc4c3F)ccc(F)c2s1 [Compound A201, (6-(7-(2-amino-7-fluorobenzo-[d]thiazol-4-yl)-6-chloro-8-fluoro-2-(((2R,7aS)-2-fluoro-tetrahydro-1H-pyrrolizin-7a(5H)-yl)methoxy)quinazolin-4-yl)-2,6-diazaspiro[3.4]octan-2-yl)(1H-1,2,4-triazol-1-yl)-methanone]		> 10
N#Cc1c(N)sc2c(F)ccc(-c3c(Cl)cc4c(O[C@@H]5CCN(C(=O)n6cncn6)C5)nc(OCC56CCCN5C[C@H](F)C6)nc4c3F)c12 (stereo partly drawn) [Compound A213, 4-(4-(((R)-1-(1H-1,2,4-triazole-1-carbonyl)pyrrolidin-3-yl)oxy)-6-chloro-8-fluoro-2-(((2R)-2-fluorotetrahydro-1H-pyrrolizin-7a(5H)-yl)methoxy)quinazolin-7-yl)-2-amino-7-fluorobenzo-[b]thiophene-3-carbonitrile]	essentially no detectable labeling	> 10
C[C@@H]1CN(C(=O)n2cncn2)[C@@H](C)CN1c1nc(OC[C@@]23CCCN2C[C@H](F)C3)nc2c(F)c(-c3ccc(F)c4sc(N)nc34)c(Cl)cc12 [Compound A244, ((2S,5R)-4-(7-(2-amino-7-fluorobenzo[d]thiazol-4-yl)-6-chloro-8-fluoro-2-(((2R,7aS)-2-fluorotetrahydro-1H-pyrrolizin-7a(5H)-yl)methoxy)quinazolin-4-yl)-2,5-dimethylpiperazin-1-yl)(1H-1,2,4-triazol-1-yl)meth-anone]		> 10
Nc1nc2c(-c3c(Cl)cc4c(N5CC6(CN(C(=O)n7cncn7)CCO6)C5)nc(OC[C@@]56CCCN5C[C@H](F)C6)nc4c3F)ccc(F)c2s1 [Compound A268, (2-(7-(2-amino-7-fluorobenzo-[d]thiazol-4-yl)-6-chloro-8-fluoro-2-(((2R,7aS)-2-fluoro-tetrahydro-1H-pyrrolizin-7a(5H)-yl)methoxy)quinazolin-4-yl)-5-oxa-2,8-diazaspiro[3.5]-nonan-8-yl)(1H-1,2,4-triazol-1-yl)methanone]		> 10
Nc1nc2c(-c3c(Cl)cc4c(N5CCOC6(CN(C(=O)n7cncn7)C6)C5)nc(OC[C@@]56CCCN5C[C@H](F)C6)nc4c3F)ccc(F)c2s1 [Compound A273, (8-(7-(2-amino-7-fluorobenzo-[d]thiazol-4-yl)-6-chloro-8-fluoro-2-(((2R,7aS)-2-fluoro-tetrahydro-1H-pyrrolizin-7a(5H)-yl)methoxy)quinazolin-4-yl)-5-oxa-2,8-diazaspiro[3.5]-nonan-2-yl)(1H-1,2,4-triazol-1-yl)methanone]		> 10
N#Cc1c(N)sc2c(F)ccc(-c3c(Cl)cc4c(N5CCC6(CN(C(=O)n7cncn7)C6)C5)nc(OC[C@@]56CCCN5C[C@H](F)C6)nc4c3F)c12 [Compound A277, 4-(4-(2-(1H-1,2,4-triazole-1-carbonyl)-2,6-diazaspiro[3.4]-octan-6-yl)-6-chloro-8-fluoro-2-(((2R,7aS)-2-fluorotetrahydro-1H-pyrrolizin-7a(5H)-yl)meth-oxy)quinazolin-7-yl)-2-amino-7-fluorobenzo[b]thiophene-3-carbonitrile]		> 10
N#Cc1c(N)sc2c(F)ccc(-c3c(Cl)cc4c(N5CC6CCCN(C(=O)n7cncn7)C6C5)nc(OC[C@@]56CCCN5C[C@H](F)C6)nc4c3F)c12 (stereo partly drawn) [Compound A284, 4-(4-(1-(1H-1,2,4-triazole-1-carbonyl)octahydro-6H-pyrrolo-[3,4-b]pyridin-6-yl)-6-chloro-8-fluoro-2-(((2R,7aS)-2-fluoro-tetrahydro-1H-pyrrolizin-7a(5H)-yl)methoxy)quinazolin-7-yl)-2-amino-7-fluorobenzo-[b]thiophene-3-carbonitrile]		> 10
Nc1nc2c(-c3c(Cl)cc4c(N5CCC56CCN(C(=O)n5cncn5)CC6)nc(OC[C@@]56CCCN5C[C@H](F)C6)nc4c3F)ccc(F)c2s1 [Compound A288, (1-(7-(2-amino-7-fluorobenzo-[d]thiazol-4-yl)-6-chloro-8-fluoro-2-(((2R,7aS)-2-fluoro-tetrahydro-1H-pyrrolizin-7a(5H)-yl)methoxy)quinazolin-4-yl)-1,7-diazaspiro[3.5]nonan-7-yl)(1H-1,2,4-triazol-1-yl)-methanone]		> 10

— patent US20240368191A1, “HETEROCYCLIC COMPOUNDS AND USES THEREOF” (Kumquat Biosciences Inc., priority 2021, published 2024)
